Here are results for two compounds from patent US4559325A, “Purified antineoplaston fractions and methods of treating neoplastic disease” (priority 1984, dated 1985).

Where a name gives a salt, the structure may show the parent alone.

The test system of data set [1] is Rd/3 sarcoma. Conditions: rats, cited from earlier work.
Data set [2] is described as follows: Acute toxicity studies in mice. As to conditions: mouse, in vivo, ip.
Experimental: After a week, a select number of the mice were sacrificed.
Acute toxicity studies involving antineoplaston fractions A2-A5, antineoplaston A10 and degradation products were carried out in the same manner described above.

`O=C(O)Cc1ccccc1` [sodium salt of phenylacetic acid]: the “enhancement of tumor growth” value in data set [1] (Rd/3 sarcoma) is “some enhancement of tumor growth”. Further, the “effect on tumor growth, Rd/3 sarcoma” value in data set [1] (inhibition) is “failed to inhibit tumor growth”. One may read the LD50 as the dose expected to kill half of the subjects tested. Take `O=C1CCC(NC(=O)Cc2ccccc2)C(=O)N1` (stereo not drawn) [Antineoplaston A10, 3-[N-phenylacetylaminopiperidine]-2,6-dion]: the LD50 in data set [2] came out at 10300 mg/kg.
